Assay results reported in patent US20110206786A1, “Acai and Iridoid Based Formulations” (priority 2010, published 2011).

How the values were obtained:
[1] = tested on: E. coli PQ37; test: Anti-genotoxicity test (SOS-chromotest with 4NQO); type: cell-based; conditions: 250 μg mL^−1 iridoid plus 1.25 μg 4NQO, compared with vehicle blank
Procedure: The primary DNA damage test was performed again, similar to the method described above. […] Induction factors were calculated in the same manner as described above.

[2] = tested on: E. coli PQ37; type: cell-based; conditions: iridoid at 250 ug plus 1.25 ug mL^−1 4NQO; blank = 1
Procedure: The SOS-chromotest in E. coli PQ37 was used to determine the potential for iridoids in noni fruit from French Polynesia to prevent primary DNA damage. E coli PQ37 was incubated at 37° C. in the presence of deacetylasperulosidic acid and asperulosidic acid at a concentration of 250 ug in a 96-well plate. Replicate samples were evaluated. […] Following incubation with the samples, 5-bromo-4-chloro-3-indolyl-β-D-galactopyranoside was added to the wells to detect β-galactosidase enzyme activity, which is induced during SOS repair of damaged DNA. The samples were again incubated for 90 minutes and the absorbances of the samples, blank and positive control were measured at 620 nm with a microplate reader. The β-galactosidase enzyme activity induction factor of each material was calculated by dividing the absorbance of the sample at 620 nm by that of the blank, while also correcting for cell viability.

[3] = Thermal stability of DAA under pasteurization conditions (HPLC); type: physicochemical; conditions: 90° C. at pH 3.3 for one minute
Procedure: Tahitian noni fruit puree as used in this example is the mashed whole fruit, excluding seeds and pericarp. The fruits were originally collected from the Tahitian Islands. One gram of the puree was diluted with 5 mL of H2O-MeOH (1:1) and mixed thoroughly. The solution was then filtered through a nylon microfilter (0.45-μm pore size); the solution was collected into a 5 mL volumetric flask for HPLC analysis. Four batches of noni puree were analyzed in the experiments. Voucher specimens of the noni fruit puree are deposited in our lab. To test iridoid stability, a DAA solution of 0.5 mg/mL was prepared with MeOH. This solution was heated in a water-bath at 90° C. for 1 min, cooled to room temperature, and analyzed by HPLC.
Noni fruit juice is usually subjected to heat pasteurization during commercial processing. Pasteurization is usually employed in noni industry, i.e., heating up to 87.7° C. for several seconds. In this study, the stability of DAA was conducted. DAA was exposed to 90° C. at pH 3.3 for one minute to determine its thermal stability at acidic conditions.

For `CC(=O)OCC1=C[C@H](O)[C@@H]2C(C(=O)O)=CO[C@@H](O[C@@H]3O[C@H](CO)[C@@H](O)[C@H](O)[C@H]3O)[C@H]12` [AA, asperulosidic acid], the “induction factors of 4NQO plus DAA or AA” value [1] was “no statistical difference from that of the vehicle blank” and the “β-galactosidase enzyme activity induction factor (mean±standard deviation)” value [2] was 1.04±0.01.
With `O=C(O)C1=CO[C@@H](O[C@@H]2O[C@H](CO)[C@@H](O)[C@H](O)[C@H]2O)[C@@H]2C(CO)=C[C@H](O)[C@H]12` [DAA, deacetylasperulosidic acid] the “induction factors of 4NQO plus DAA or AA” value [1] was “no statistical difference from that of the vehicle blank”, the “β-galactosidase enzyme activity induction factor (mean±standard deviation)” value [2] was 0.98±0.02 and the “thermal stability (DAA contents before and after heating)” value [3] was “no difference in the DAA contents before and after heating”.
